The nature of data set [1]: Cytotoxicity (CellTiter 96 AQueous One, MTS). Type of data set: cell-based. As to conditions: human; PBM cells. How it is done:
The cytotoxicity and human immunodeficiency virus type 1 (HIV-1) strain LAI replication assays were performed in freshly explanted primary human peripheral blood mononuclear cells (PBM cells) according to published procedures. The assays were conducted at least in triplicate and treated statistically (if possible). HIV-1LAI (= HIV-1BRU = LAV-1) was assayed in primary human peripheral blood lymphocyte (PBL) cells in the presence of a drug being evaluated. The parameter for antiviral activity was a reduction in reverse transcriptase (RT) activity in the cell supernatant after Triton X–100-mediated lysis of released virions, as measured using [5α-^3H]dTTP (5α-tritiated thymidine 5′-triphosphate) incorporation into poly(rA)•poly(dT) directed by the primed RNA template poly(rA)•oligo(dT). […] Cytotoxicity on PBL and the other cells (CCRF−CEM, Vero) exerted by the test compounds was determined as described by Stuyver et al. by application of the CellTiter 96® AQueous One Solution Cell Proliferation Assay (Promega Corp., Madison, WI, USA). Briefly, the phenazine ethosulfate (PES)-coupled reduction of the tetrazolium salt 3-(4,5-dimethylthiazol-2-yl)-5-(3-carboxymethoxyphenyl)-2-(4-sulfophenyl)-2H-tetrazolium (MTS) to a purple, water-soluble formazan by living, undamaged cells was measured.

Data set [2] deals with HL-60 (TB).

As a reminder, the CC50 is the concentration giving 50% cytotoxicity. A word on the TGI: it is the concentration giving total growth inhibition. For orientation: GI50 means the concentration that inhibits growth by half.

The structures appear in SMILES notation.

Turning to `c1cc(CNC23CC4CC(CC(C4)C2)C3)cc(C[N+](Cc2cccc(CNC34CC5CC(CC(C5)C3)C4)c2)(Cc2cccc(CNC34CC5CC(CC(C5)C3)C4)c2)Cc2cccc(CNC34CC5CC(CC(C5)C3)C4)c2)c1` (stereo not drawn) [Compound 1, tetrakis{3-[(tricyclo[3.3.1.1^3,7]decan-1-ammonio)methyl]benzyl}ammonium pentachloride], the CC50 in data set [1] is 2.2 µM. In data set [2] (HL-60 (TB), leukemia, mutant p53, 48 h), this molecule displayed a TGI of 2.71 µM. This molecule showed a GI50 in data set [2] (Homo sapiens, HL-60, 48 h) of 0.87 µM.
